One test relates to MV4-11 cells. Nature of the test: Cell proliferation assay (ATPlite). Format: cell-based. The note with it: Homo sapiens, 120 h; MV4-11 cells, five days; read-out: GI MV411 EC50. A digest of the protocol: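 ATPlite luminescence after five days' culture (37° C, 5% CO2) gives viability. Compounds dosed in 10 concentrations up to 10 μM against DMSO; 1,000 cells/well seeded in Alpha-MEM/10% FBS.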
Background: ATP-based viability assays read luminescence as a measure of living cells.

Test [1] addresses T1, WDR5 (Homo sapiens, UniProt P61964). Put plainly: Surface Plasmon Resonance (SPR) assay. Format: binding. The arrangement: Full length WDR5 with an N-terminal His tag and C-terminal AviTag; His tag (N); made in house; host or cells: E. coli. The conditions noted are these: read-out: SPR Kd. A digest of the protocol:
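Full-length biotinylated WDR5 (N-His, C-AviTag, E. coli) captured (~3000 RU) on streptavidin SA chip; Biacore T200. HBS-EP pH 7.4 plus 5% DMSO running buffer, 40 μl/min.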

Test [2] deals with T1, WDR5. Nature of the test: Fluorescence Polarization (FP) binding assay. The gist of the method:
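Buffer was pH 6.5 sodium phosphate (80 mM) with 20 mM KCl and 0.008% Triton X-100; 9-Ala-FAM probe at 20 nM used 0.05 μM WDR5 and 480/540 nm polarization, H3 (1-15) probe at 30 nM used 0.3 μM WDR5 and 485/528 nm. Quadruplicate data were hyperbola-fitted to give Kdisp.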

Usually EC50 stands for the concentration giving half of the maximal effect. Usually Kd stands for the equilibrium constant for the complex coming apart. A word on the IC50: it is the concentration that gives 50% inhibition. Turning to `COc1cc(N2CC=C(c3c(F)cc(N4CCN(C)[C@@H](C)C4)c(NC(=O)c4c[nH]c(=O)cc4C(F)(F)F)c3F)C2)ncn1` [Example 75, (S)—N-(6-(3,4-dimethylpiperazin-1-yl)-2,4-difluoro-3-(1-(6-methoxypyrimidin-4-yl)-2,5-dihydro-1H-pyrrol-3-yl)phenyl)-6-oxo-4-(trifluoromethyl)-1,6-dihydropyridine-3-carboxamide], in the test with MV4-11 cells, the EC50 is 35.1 nM. The Kd on WDR5 [1] was 1.8 nM. Besides, at WDR5 [2], the IC50 stood at 18.5 nM.
Taken in the same sequence, the figures for `C[C@@H]1CN(c2ccc(-c3c(F)cc(N4CCN(C)[C@@H](C)C4)c(NC(=O)c4c[nH]c(=O)cc4C(F)F)c3F)cn2)CCO1` [Example 181, 4-(Difluoromethyl)-N-(6-((S)-3,4-dimethylpiperazin-1-yl)-2,4-difluoro-3-(6-((R)-2-methylmorpholino)pyridin-3-yl)phenyl)-6-oxo-1,6-dihydropyridine-3-carboxamide] were 29.9 nM, 0.64 nM and 24.5 nM.
On to `C[C@@H]1CN(c2cc(F)c(-c3ccc(C(=O)NC(C)(C)CC(C)(C)C)c(F)c3F)c(F)c2NC(=O)c2c[nH]c(=O)cc2C(F)(F)F)C[C@H](C)N1C` [Example 27, 6-Oxo-N-(2,2′,3′,6-tetrafluoro-4′-((2,4,4-trimethylpentan-2-yl)carbamoyl)-4-((3S,5R)-3,4,5-trimethylpiperazin-1-yl)-[,1′-biphenyl]-3-yl)-4-(trifluoromethyl)-1,6-dihydropyridine-3-carboxamide], for which the EC50 in the test with MV4-11 cells came out at 221 nM. The Kd on WDR5 [1] came to 1.13 nM. On WDR5 [2], the IC50 was found to be 34.8 nM.
On the same counts, the results for `CNC(=O)c1cc(-c2c(F)cc(N3C[C@@H](C)N(C)[C@@H](C)C3)c(NC(=O)c3c[nH]c(=O)cc3C(F)(F)F)c2F)ccc1F` [Example 29, 6-Oxo-N-(2,4′,6-trifluoro-3′-(methylcarbamoyl)-4-((3S,5R)-3,4,5-trimethylpiperazin-1-yl)-[1,1′-biphenyl]-3-yl)-4-(trifluoromethyl)-1,6-dihydropyridine-3-carboxamide] are 1110 nM, 3.9 nM and 22.4 nM.
Taken in the same sequence, the figures for `CC(C)OC(=O)N1CCC=C(c2c(F)cc(N3CCN(C)[C@@H](C)C3)c(NC(=O)c3c[nH]c(=O)cc3C(F)F)c2F)C1` [Example 35, Isopropyl (S)-5-(3-(4-(difluoromethyl)-6-oxo-1,6-dihydropyridine-3-carboxamido)-4-(3,4-dimethylpiperazin-1-yl)-2,6-difluorophenyl)-3,6-dihydropyridine-1(2H)-carboxylate] were 409 nM, 6.29 nM and 29.4 nM.
Taken in the same sequence, the figures for `C[C@H]1CN(c2ncc(-c3c(F)cc(N4CCN(C)[C@@H](C)C4)c(NC(=O)c4cn(C)c(=O)cc4C(F)F)c3F)cn2)C[C@H](C)O1` [Example 160, 4-(Difluoromethyl)-N-(3-(2-((2S,6S)-2,6-dimethylmorpholino)pyrimidin-5-yl)-6-((S)-3,4-dimethylpiperazin-1-yl)-2,4-difluorophenyl)-1-methyl-6-oxo-1,6-dihydropyridine-3-carboxamide] were 254 nM, 1.36 nM and 14 nM.
For `C[C@H]1CN(c2ncc(-c3c(F)cc(N4CCN(C)[C@@H](C)C4)c(NC(=O)c4c[nH]c(=O)cc4C(F)F)c3F)cn2)CCO1` [Example 126, 4-(Difluoromethyl)-N-(6-((S)-3,4-dimethylpiperazin-1-yl)-2,4-difluoro-3-(2-((S)-2-methylmorpholino)pyrimidin-5-yl)phenyl)-6-oxo-1,6-dihydropyridine-3-carboxamide], in the test with MV4-11 cells, the EC50 stood at 11.8 nM. For the same compound, the Kd at WDR5 [1] came out at 0.56 nM. Further, the 50% inhibitory concentration (IC50) at WDR5 [2] stood at 11.8 nM.
For `C[C@@H]1CN(c2cc(F)c(C3=CCCN(c4ncc(F)cn4)C3)c(F)c2NC(=O)c2c[nH]c(=O)cc2C(F)(F)F)C[C@H](C)N1C` [Example 146, N-(2,4-difluoro-3-(1-(5-fluoropyrimidin-2-yl)-1,2,5,6-tetrahydropyridin-3-yl)-6-((3S,5R)-3,4,5-trimethylpiperazin-1-yl)phenyl)-6-oxo-4-(trifluoromethyl)-1,6-dihydropyridine-3-carboxamide], in the test with MV4-11 cells, the EC50 amounted to 239 nM. Besides, the Kd at WDR5 [1] came to 1.65 nM. At WDR5 [2], the IC50 is 21 nM.
On the same counts, the results for `CC(C)[C@@H]1CN(c2ncc(-c3c(F)cc(N4C[C@@H](C)N(C)[C@@H](C)C4)c(NC(=O)c4c[nH]c(=O)cc4C(F)F)c3F)cn2)CCO1` [Example 118, N-(2,4-difluoro-3-(2-((R)-2-isopropylmorpholino)pyrimidin-5-yl)-6-((3S,5R)-3,4,5-trimethylpiperazin-1-yl)phenyl)-4-(difluoromethyl)-6-oxo-1,6-dihydropyridine-3-carboxamide] are 12.2 nM, 0.95 nM and 12.2 nM.
Taken in the same sequence, the figures for `COc1cc(N2CC=C(c3c(F)cc(N4C[C@@H](C)N(C)[C@@H](C)C4)c(NC(=O)c4c[nH]c(=O)cc4C(F)(F)F)c3F)CC2)ncn1` [Example 140, N-(2,4-difluoro-3-(1-(6-methoxypyrimidin-4-yl)-1,2,3,6-tetrahydropyridin-4-yl)-6-((3S,5R)-3,4,5-trimethylpiperazin-1-yl)phenyl)-6-oxo-4-(trifluoromethyl)-1,6-dihydropyridine-3-carboxamide] were 30.9 nM, 1.4 nM and 14.5 nM.
`Cc1sc(-c2c(F)cc(N3CCN(C)[C@@H](C)C3)c(NC(=O)c3ccc(F)cc3C(F)F)c2F)nc1C(=O)N1CCCC1` [Example 153, (S)-2-(difluoromethyl)-N-(6-(3,4-dimethylpiperazin-1-yl)-2,4-difluoro-3-(5-methyl-4-(pyrrolidine-1-carbonyl)thiazol-2-yl)phenyl)-4-fluorobenzamide]: the EC50 in the test on MV4-11 cells is 70.1 nM. Moreover, the Kd at WDR5 [1] was found to be 1.18 nM. For the same compound, at WDR5 [2], the IC50 was found to be 5 nM.
On the same counts, the results for `C[C@@H]1CN(c2ncc(-c3c(F)cc(N4CCN(C)[C@@H](C)C4)c(NC(=O)c4c[nH]c(=O)cc4C(F)(F)F)c3F)cn2)C[C@H](C)O1` [Example 55, N-(3-(2-((2S,6R)-2,6-dimethylmorpholino)pyrimidin-5-yl)-6-((S)-3,4-dimethylpiperazin-1-yl)-2,4-difluorophenyl)-6-oxo-4-(trifluoromethyl)-1,6-dihydropyridine-3-carboxamide] are 23.8 nM, 0.78 nM and 14.8 nM.
On the same counts, the results for `C[C@@H]1CN(c2ncc(-c3c(F)cc(N4CCN(C)[C@@H](C)C4)c(NC(=O)c4c[nH]c(=O)cc4C(F)F)c3F)cn2)CCO1` [Example 129, 4-(Difluoromethyl)-N-(6-((S)-3,4-dimethylpiperazin-1-yl)-2,4-difluoro-3-(2-((R)-2-methylmorpholino)pyrimidin-5-yl)phenyl)-6-oxo-1,6-dihydropyridine-3-carboxamide] are 13.5 nM, 0.34 nM and 8.79 nM.
Taken in the same sequence, the figures for `C[C@@H]1CN(c2ncc(-c3c(F)cc(N4CCN(C)[C@@H](C)C4)c(NC(=O)c4c[nH]c(=O)cc4C(F)(F)F)c3F)cn2)CCO1` [Example 127, N-(6-((S)-3,4-dimethylpiperazin-1-yl)-2,4-difluoro-3-(2-((R)-2-methylmorpholino)pyrimidin-5-yl)phenyl)-6-oxo-4-(trifluoromethyl)-1,6-dihydropyridine-3-carboxamide] were 10.2 nM, 0.69 nM and 11.7 nM.
For `C[C@H]1CN(c2cc(F)c(C3=CCN(C(=O)OC4(C)CCC4)CC3)c(F)c2NC(=O)c2c[nH]c(=O)cc2C(F)(F)F)CCN1C` [Example 93, 1-Methylcyclobutyl(S)-4-(4-(3,4-dimethylpiperazin-1-yl)-2,6-difluoro-3-(6-oxo-4-(trifluoromethyl)-1,6-dihydropyridine-3-carboxamido)phenyl)-3,6-dihydropyridine-1(2H)-carboxylate], the EC50 in the test on MV4-11 cells was 19.4 nM. Besides, the Kd at WDR5 [1] came out at 2.15 nM. In addition, at WDR5 [2], the IC50 was found to be 15.4 nM.
On the same counts, the results for `C[C@@H]1CN(c2nccc(-c3c(F)cc(N4C[C@@H](C)N(C)[C@@H](C)C4)c(NC(=O)c4c[nH]c(=O)cc4C(F)(F)F)c3F)n2)C[C@H](C)O1` [Example 77, N-(3-(2-((2S,6R)-2,6-dimethylmorpholino)pyrimidin-4-yl)-2,4-difluoro-6-((3S,5R)-3,4,5-trimethylpiperazin-1-yl)phenyl)-6-oxo-4-(trifluoromethyl)-1,6-dihydropyridine-3-carboxamide] are 108 nM, 1.12 nM and 10.1 nM.
Taken in the same sequence, the figures for `C[C@H]1CN(c2cc(F)c(C3=CCN(C(=O)OC4CC(F)(F)C4)CC3)c(F)c2NC(=O)c2c[nH]c(=O)cc2C(F)F)CCN1C` [Example 42, 3,3-Difluorocyclobutyl (S)-4-(3-(4-(difluoromethyl)-6-oxo-1,6-dihydropyridine-3-carboxamido)-4-(3,4-dimethylpiperazin-1-yl)-2,6-difluorophenyl)-3,6-dihydropyridine-1(2H)-carboxylate] were 281 nM, 2.38 nM and 11.2 nM.

The values are drawn from patent publication US20200385371A1 (Propellon Therapeutics Inc., priority 2017, published 2020).
